Laboratory results reported in ChEMBL document CHEMBL1138676, “Liver-selective glucocorticoid antagonists: a novel treatment for type 2 diabetes” (J Med Chem, 2004).

Columns and labels:
Progesterone receptor = biological target: T1, Progesterone receptor (Homo sapiens, UniProt P06401); assay: Inhibition of human progesterone receptor
T1 sequence (P06401 whole entry): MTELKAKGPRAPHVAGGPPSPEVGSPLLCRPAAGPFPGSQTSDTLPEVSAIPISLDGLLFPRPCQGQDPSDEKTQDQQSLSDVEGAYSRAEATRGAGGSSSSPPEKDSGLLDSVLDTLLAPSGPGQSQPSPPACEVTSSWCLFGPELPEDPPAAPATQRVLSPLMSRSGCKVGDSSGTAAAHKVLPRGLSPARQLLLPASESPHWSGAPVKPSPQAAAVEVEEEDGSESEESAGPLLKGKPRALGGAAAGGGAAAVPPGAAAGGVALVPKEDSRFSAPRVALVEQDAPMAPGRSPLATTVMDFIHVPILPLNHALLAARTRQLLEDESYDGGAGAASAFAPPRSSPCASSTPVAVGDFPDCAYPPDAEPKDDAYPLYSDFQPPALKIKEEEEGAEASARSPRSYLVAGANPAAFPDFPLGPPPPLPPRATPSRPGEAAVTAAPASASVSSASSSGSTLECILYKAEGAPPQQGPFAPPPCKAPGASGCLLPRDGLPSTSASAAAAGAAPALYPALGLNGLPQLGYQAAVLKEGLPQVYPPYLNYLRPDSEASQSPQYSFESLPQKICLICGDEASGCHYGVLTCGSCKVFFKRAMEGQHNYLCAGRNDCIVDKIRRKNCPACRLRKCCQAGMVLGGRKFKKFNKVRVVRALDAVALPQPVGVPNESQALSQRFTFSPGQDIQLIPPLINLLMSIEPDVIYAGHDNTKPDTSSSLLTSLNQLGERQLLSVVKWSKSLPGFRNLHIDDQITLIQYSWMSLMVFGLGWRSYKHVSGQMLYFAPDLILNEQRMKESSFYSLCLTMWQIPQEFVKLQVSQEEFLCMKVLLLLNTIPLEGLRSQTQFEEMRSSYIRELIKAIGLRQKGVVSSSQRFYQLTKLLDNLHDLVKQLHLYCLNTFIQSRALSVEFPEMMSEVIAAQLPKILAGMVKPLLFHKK

Glucocorticoid receptor [1] = biological target: T2, Glucocorticoid receptor (Homo sapiens, UniProt P04150); assay: Inhibition of glucocorticoid receptor dependent alkaline phosphatase activity; assay type: functional
T2 sequence (P04150 whole entry): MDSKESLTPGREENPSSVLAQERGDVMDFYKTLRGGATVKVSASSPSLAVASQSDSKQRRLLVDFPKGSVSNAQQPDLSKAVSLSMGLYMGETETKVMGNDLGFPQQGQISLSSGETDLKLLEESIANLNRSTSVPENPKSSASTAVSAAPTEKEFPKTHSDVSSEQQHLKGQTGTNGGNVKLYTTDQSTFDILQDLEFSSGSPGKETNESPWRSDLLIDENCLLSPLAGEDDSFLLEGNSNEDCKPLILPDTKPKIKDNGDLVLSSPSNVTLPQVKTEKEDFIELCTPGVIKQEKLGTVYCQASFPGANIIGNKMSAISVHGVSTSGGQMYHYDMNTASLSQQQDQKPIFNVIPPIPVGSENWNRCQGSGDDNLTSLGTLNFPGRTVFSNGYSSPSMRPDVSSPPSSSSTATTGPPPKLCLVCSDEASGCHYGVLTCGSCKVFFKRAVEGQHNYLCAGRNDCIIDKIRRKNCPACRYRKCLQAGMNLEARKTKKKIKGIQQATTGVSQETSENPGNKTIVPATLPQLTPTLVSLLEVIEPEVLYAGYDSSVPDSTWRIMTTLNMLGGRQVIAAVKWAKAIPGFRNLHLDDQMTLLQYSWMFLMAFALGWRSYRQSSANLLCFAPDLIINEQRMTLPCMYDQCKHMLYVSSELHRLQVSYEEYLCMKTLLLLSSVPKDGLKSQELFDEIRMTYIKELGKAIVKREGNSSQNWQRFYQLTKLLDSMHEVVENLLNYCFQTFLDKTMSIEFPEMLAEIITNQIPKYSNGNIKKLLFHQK

Glucocorticoid receptor [2] = biological target: T2, Glucocorticoid receptor; assay: Inhibition of human glucocorticoid receptor
Androgen receptor = biological target: T3, Androgen receptor (Homo sapiens, UniProt P10275)
T3 sequence (P10275 whole entry): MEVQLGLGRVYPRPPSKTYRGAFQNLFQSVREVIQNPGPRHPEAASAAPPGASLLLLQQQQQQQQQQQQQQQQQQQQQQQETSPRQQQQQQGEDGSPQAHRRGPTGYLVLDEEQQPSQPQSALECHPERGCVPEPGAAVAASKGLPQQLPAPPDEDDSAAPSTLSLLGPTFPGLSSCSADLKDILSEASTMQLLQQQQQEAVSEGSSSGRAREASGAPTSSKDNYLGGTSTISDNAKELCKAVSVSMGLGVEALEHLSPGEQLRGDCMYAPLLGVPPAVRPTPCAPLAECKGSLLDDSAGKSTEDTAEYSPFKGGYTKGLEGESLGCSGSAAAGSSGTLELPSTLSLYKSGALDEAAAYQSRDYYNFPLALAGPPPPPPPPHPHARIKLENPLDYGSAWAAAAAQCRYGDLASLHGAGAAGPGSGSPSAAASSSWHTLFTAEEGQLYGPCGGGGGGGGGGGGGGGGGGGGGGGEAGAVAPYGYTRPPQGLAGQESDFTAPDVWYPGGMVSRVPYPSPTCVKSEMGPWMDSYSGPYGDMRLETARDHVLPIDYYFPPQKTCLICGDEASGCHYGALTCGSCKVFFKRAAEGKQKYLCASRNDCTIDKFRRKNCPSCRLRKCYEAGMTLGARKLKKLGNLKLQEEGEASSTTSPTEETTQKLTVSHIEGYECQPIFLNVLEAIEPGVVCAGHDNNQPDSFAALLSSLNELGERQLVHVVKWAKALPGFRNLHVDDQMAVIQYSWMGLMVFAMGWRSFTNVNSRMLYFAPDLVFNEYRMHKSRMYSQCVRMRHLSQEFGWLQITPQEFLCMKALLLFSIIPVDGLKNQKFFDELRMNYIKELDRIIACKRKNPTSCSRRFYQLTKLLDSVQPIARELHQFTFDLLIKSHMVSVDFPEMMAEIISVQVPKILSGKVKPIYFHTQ
Description: Inhibition of human androgen receptor

[3] = biological target: Glucocorticoid receptor (Rattus norvegicus) (UniProt P06536); assay: Inhibition of glucocorticoid receptor mediated tyrosine amino transferase activity
[4] = Inhibitory activity against rat lymphocytes; set-up: concentration or dose not given beside the values
[5] = biological target: Glucocorticoid receptor (Rattus norvegicus) (UniProt P06536); assay: Inhibition of glucocorticoid receptor mediated tyrosine aminotransferase activity; set-up: concentration or dose not given beside the values; conditions: concentration not given here
[6] = biological target: T4, Mineralocorticoid receptor (Homo sapiens, UniProt P08235)
T4 sequence (P08235 whole entry): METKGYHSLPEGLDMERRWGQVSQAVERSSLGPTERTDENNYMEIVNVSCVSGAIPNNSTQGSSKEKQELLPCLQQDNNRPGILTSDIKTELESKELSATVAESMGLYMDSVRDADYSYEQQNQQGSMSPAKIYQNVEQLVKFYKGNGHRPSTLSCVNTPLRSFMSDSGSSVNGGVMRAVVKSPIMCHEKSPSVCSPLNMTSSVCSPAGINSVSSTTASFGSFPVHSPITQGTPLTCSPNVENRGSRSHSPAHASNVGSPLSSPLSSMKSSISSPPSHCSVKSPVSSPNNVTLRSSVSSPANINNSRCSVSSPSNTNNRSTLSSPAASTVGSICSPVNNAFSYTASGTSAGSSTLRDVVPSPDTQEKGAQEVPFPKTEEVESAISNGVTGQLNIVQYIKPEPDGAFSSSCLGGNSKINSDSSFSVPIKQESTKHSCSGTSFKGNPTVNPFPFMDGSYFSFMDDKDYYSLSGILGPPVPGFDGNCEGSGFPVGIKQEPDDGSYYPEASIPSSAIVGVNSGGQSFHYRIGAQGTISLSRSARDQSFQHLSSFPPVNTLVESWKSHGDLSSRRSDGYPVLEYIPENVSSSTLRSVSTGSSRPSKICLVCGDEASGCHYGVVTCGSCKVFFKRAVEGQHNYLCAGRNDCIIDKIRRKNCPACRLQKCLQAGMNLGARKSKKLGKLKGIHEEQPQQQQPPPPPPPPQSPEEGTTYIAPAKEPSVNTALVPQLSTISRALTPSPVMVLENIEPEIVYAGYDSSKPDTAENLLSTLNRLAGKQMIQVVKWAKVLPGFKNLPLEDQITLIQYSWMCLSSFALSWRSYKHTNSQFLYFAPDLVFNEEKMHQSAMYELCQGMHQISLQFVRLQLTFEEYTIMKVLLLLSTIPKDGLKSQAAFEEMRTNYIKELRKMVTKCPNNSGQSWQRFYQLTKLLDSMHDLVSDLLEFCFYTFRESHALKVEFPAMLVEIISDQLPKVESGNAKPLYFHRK
Description: Inhibition of human Mineralocorticoid receptor

Sequence of Glucocorticoid receptor (Rattus norvegicus) (P06536 whole entry, looked up): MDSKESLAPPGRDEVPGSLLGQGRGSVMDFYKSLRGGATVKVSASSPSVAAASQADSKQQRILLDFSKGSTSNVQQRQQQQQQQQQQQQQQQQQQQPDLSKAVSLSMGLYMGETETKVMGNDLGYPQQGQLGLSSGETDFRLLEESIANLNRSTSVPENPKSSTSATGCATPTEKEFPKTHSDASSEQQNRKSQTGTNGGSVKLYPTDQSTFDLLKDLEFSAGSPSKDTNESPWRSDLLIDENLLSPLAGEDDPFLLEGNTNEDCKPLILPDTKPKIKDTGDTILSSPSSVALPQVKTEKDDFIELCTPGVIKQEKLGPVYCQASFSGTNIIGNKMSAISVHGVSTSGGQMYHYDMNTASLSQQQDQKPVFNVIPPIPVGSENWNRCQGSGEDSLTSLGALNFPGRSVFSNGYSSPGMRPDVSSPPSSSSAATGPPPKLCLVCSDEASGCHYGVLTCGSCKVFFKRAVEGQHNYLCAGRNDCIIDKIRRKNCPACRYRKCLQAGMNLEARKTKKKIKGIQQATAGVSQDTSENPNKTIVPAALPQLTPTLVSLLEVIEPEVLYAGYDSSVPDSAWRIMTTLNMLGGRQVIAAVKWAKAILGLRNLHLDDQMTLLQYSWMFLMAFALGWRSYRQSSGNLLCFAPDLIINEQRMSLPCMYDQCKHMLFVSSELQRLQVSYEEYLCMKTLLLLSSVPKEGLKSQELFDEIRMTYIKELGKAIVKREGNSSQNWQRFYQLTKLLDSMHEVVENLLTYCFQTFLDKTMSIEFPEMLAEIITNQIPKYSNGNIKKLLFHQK

Row | Ki (Progesterone receptor) | Ki (Glucocorticoid receptor [1]) | Ki (Glucocorticoid receptor [2]) | Ki (Androgen receptor) | Ki [3] | inhibition [5] | Ki [6] | Compound | Inhibition [4]
1 | 4.6 nM | 37 nM | 1.2 nM | 18 nM | 730 nM |  |  | C#C[C@]1(O)CC[C@H]2[C@@H]3CCC4=CC(=O)CCC4=C3[C@@H](c3ccc(N(C)CCNC(=O)O[C@@H]4C[C@@H]5CC(O)CC[C@]5(C)[C@H]5C[C@H](O)[C@]6(C)[C@@H]([C@H](C)CCC(=O)O)CC[C@H]6[C@H]45)cc3)C[C@@]21C (stereo partly drawn) | 
2 |  | 100 nM | 6.5 nM |  | 500 nM |  |  | C#C[C@]1(O)CC[C@H]2[C@@H]3CCC4=CC(=O)CCC4=C3[C@@H](c3ccc(N(C)C(=O)CNC(=O)O[C@H]4C[C@H]5[C@@H]([C@H](O)C[C@@H]6C[C@H](O)CC[C@@]65C)[C@@H]5CC[C@H]([C@H](C)CCC(=O)O)[C@@]45C)cc3)C[C@@]21C | 
3 |  | 4.3 nM | 0.11 nM |  |  | 6% |  | C#C[C@]1(O)CC[C@H]2[C@@H]3CCC4=CC(=O)CCC4=C3[C@@H](c3ccc(N(C)CCC[C@@]4(O)CC[C@@]5(C)[C@H](C[C@@H](O)[C@@H]6[C@@H]5C[C@H](O)[C@]5(C)[C@@H]([C@H](C)CCC(=O)O)CC[C@@H]65)C4)cc3)C[C@@]21C | 0%
4 |  |  |  |  |  |  |  | CC#C[C@]1(O)CC[C@H]2[C@@H]3CCC4=CC(=O)CCC4=C3[C@@H](c3ccc(N(C)CCO[C@H]4CC[C@@]5(C)[C@@H](C4)C[C@@H](O)[C@@H]4[C@@H]5C[C@H](O)[C@]5(C)[C@@H]([C@H](C)CCC(=O)NCCS(=O)(=O)O)CC[C@@H]45)cc3)C[C@@]21C | -6%
5 |  | 0.38 nM | 0.16 nM |  |  | 69% |  | C#C[C@]1(O)CC[C@H]2[C@@H]3CCC4=CC(=O)CCC4=C3[C@@H](c3ccc(N(C)CCOC4CC[C@@]5(C)[C@H](CC[C@@H]6[C@@H]5C[C@H](O)[C@]5(C)[C@@H]([C@H](C)CCC(=O)O)CC[C@@H]65)C4)cc3)C[C@@]21C (stereo partly drawn) | 22%
6 |  |  |  |  |  | 49% |  | C#C[C@]1(O)CC[C@H]2[C@@H]3CCC4=CC(=O)CCC4=C3[C@@H](c3ccc(N(C)CCOC4CC[C@@]5(C)[C@@H](C4)C[C@@H](O)[C@@H]4[C@@H]5C[C@H](O)[C@]5(C)[C@@H]([C@H](C)CCC(=O)O)CC[C@@H]45)cc3)C[C@@]21C (stereo in doubt; form 1) | 
7 |  | 2.7 nM | 0.22 nM |  |  |  |  | C#C[C@]1(O)CC[C@H]2[C@@H]3CCC4=CC(=O)CCC4=C3[C@@H](c3ccc(N(C)CCOC4CC[C@@]5(C)[C@H](CC[C@@H]6[C@@H]5CC[C@]5(C)[C@@H]([C@H](C)CCC(=O)O)CC[C@@H]65)C4)cc3)C[C@@]21C (stereo partly drawn) | 
8 |  |  |  |  |  | 5% |  | CC#C[C@]1(O)CC[C@H]2[C@@H]3CCC4=CC(=O)CC[C@]4(Cc4ccc(CCCO[C@H]5CC[C@@]6(C)[C@@H](C5)C[C@@H](O)[C@@H]5[C@@H]6C[C@H](O)[C@]6(C)[C@@H]([C@H](C)CCC(=O)O)CC[C@@H]56)cc4)C3=CC[C@@]21C | -16%
9 | 1.7 nM | 12 nM | 0.21 nM | 4.8 nM | 90 nM | 66% | 170 nM | C#C[C@]1(O)CC[C@H]2[C@@H]3CCC4=CC(=O)CCC4=C3[C@@H](c3ccc(N(C)CCOCCO[C@@H]4CC[C@@]5(C)[C@@H](C4)C[C@@H](O)[C@@H]4[C@@H]5C[C@H](O)[C@]5(C)[C@@H]([C@H](C)CCC(=O)O)CC[C@@H]45)cc3)C[C@@]21C | -2%
10 |  |  |  |  |  | 72% |  | C#C[C@]1(O)CC[C@H]2[C@@H]3CCC4=CC(=O)CCC4=C3[C@@H](c3ccc(N(C)CCOC4CC[C@@]5(C)[C@@H](C4)C[C@@H](O)[C@@H]4[C@@H]5C[C@H](O)[C@]5(C)[C@@H]([C@H](C)CCC(=O)O)CC[C@@H]45)cc3)C[C@@]21C (stereo in doubt; form 2) | 
11 |  | 0.76 nM | 0.18 nM |  |  |  |  | C#C[C@]1(O)CC[C@H]2[C@@H]3CCC4=CC(=O)CCC4=C3[C@@H](c3ccc(N(C)CCOC4CC[C@@]5(C)[C@@H](C4)C[C@@H](O)[C@@H]4[C@@H]5CC[C@]5(C)[C@@H]([C@H](C)CCC(=O)O)CC[C@@H]45)cc3)C[C@@]21C (stereo partly drawn) | 
